Results: PubChem BioAssay (NCI)
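The compound was tested at five concentrations on cells cultured in 96-well plates, with a 48-hour exposure period. TGI: concentration producing complete growth inhibition.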

What was measured:
Experiment in all cases: NCI tumour cell line growth inhibition, 48 h
MDA-MB-231 breast = test system: MDA-MB-231 breast
OVCAR-5 ovarian = test system: OVCAR-5 ovarian
SK-OV-3 ovarian = test system: SK-OV-3 ovarian
SN12C renal = test system: SN12C renal
HCC-2998 colon = test system: HCC-2998 colon
SR leukemia = test system: SR leukemia
SNB-19 CNS = test system: SNB-19 CNS
EKVX NSCLC = test system: EKVX NSCLC
SK-MEL-2 melanoma = test system: SK-MEL-2 melanoma
LOX IMVI melanoma = test system: LOX IMVI melanoma
HOP-92 NSCLC = test system: HOP-92 NSCLC
SF-295 CNS = test system: SF-295 CNS
T-47D breast = test system: T-47D breast
CCRF-CEM leukemia = test system: CCRF-CEM leukemia
OVCAR-4 ovarian = test system: OVCAR-4 ovarian
SNB-75 CNS = test system: SNB-75 CNS
TK-10 renal = test system: TK-10 renal
MOLT-4 leukemia = test system: MOLT-4 leukemia
HCT-116 colon = test system: HCT-116 colon
A549 NSCLC = test system: A549 NSCLC
SK-MEL-5 melanoma = test system: SK-MEL-5 melanoma
NCI-H226 lung = test system: NCI-H226 lung
UO-31 renal = test system: UO-31 renal
SK-MEL-28 melanoma = test system: SK-MEL-28 melanoma
COLO 205 colon = test system: COLO 205 colon
MDA-MB-435 = test system: MDA-MB-435
SF-539 CNS = test system: SF-539 CNS
SF-268 CNS = test system: SF-268 CNS
HL-60(TB) leukemia = test system: HL-60(TB) leukemia
SW-620 colon = test system: SW-620 colon
NCI-H460 lung = test system: NCI-H460 lung
IGROV1 ovarian = test system: IGROV1 ovarian
NCI-H522 lung = test system: NCI-H522 lung
M14 melanoma = test system: M14 melanoma
786-0 renal = test system: 786-0 renal
HS 578T breast = test system: HS 578T breast
MDA-N = test system: MDA-N
RXF 393 renal = test system: RXF 393 renal
KM12 colon = test system: KM12 colon
NCI-H23 lung = test system: NCI-H23 lung
HCT-15 colon = test system: HCT-15 colon
RPMI-8226 leukemia = test system: RPMI-8226 leukemia
BT-549 breast = test system: BT-549 breast
DU-145 prostate = test system: DU-145 prostate
MALME-3M melanoma = test system: MALME-3M melanoma
HT29 colon = test system: HT29 colon
OVCAR-8 ovarian = test system: OVCAR-8 ovarian
UACC-257 melanoma = test system: UACC-257 melanoma
OVCAR-3 ovarian = test system: OVCAR-3 ovarian
K-562 leukemia = test system: K-562 leukemia
NCI/ADR-RES ovarian = test system: NCI/ADR-RES ovarian
HOP-62 NSCLC = test system: HOP-62 NSCLC
U251 CNS = test system: U251 CNS
CAKI-1 renal = test system: CAKI-1 renal

With CCN(CC)S(=O)(=O)c1ccc2nc(NC(=O)OC)[nH]c2c1 the TGI (MDA-MB-231 breast) was > 100 µM, the TGI (OVCAR-5 ovarian) was > 100 µM and the TGI (SK-OV-3 ovarian) was > 100 µM. The TGI (SN12C renal) was > 100 µM, the TGI (HCC-2998 colon) was > 100 µM and the TGI (SR leukemia) was 83.9 µM. The TGI (SNB-19 CNS) was > 100 µM, the TGI (EKVX NSCLC) was > 100 µM and the TGI (SK-MEL-2 melanoma) was > 100 µM. The TGI (LOX IMVI melanoma) was > 100 µM, the TGI (HOP-92 NSCLC) was > 100 µM and the TGI (SF-295 CNS) was > 100 µM. The TGI (T-47D breast) was > 100 µM, the TGI (CCRF-CEM leukemia) was > 100 µM and the TGI (OVCAR-4 ovarian) was > 100 µM. The TGI (SNB-75 CNS) was > 100 µM, the TGI (TK-10 renal) was > 100 µM and the TGI (MOLT-4 leukemia) was 61.7 µM. The TGI (HCT-116 colon) was > 100 µM, the TGI (A549 NSCLC) was > 100 µM and the TGI (SK-MEL-5 melanoma) was > 100 µM. The TGI (NCI-H226 lung) was > 100 µM, the TGI (UO-31 renal) was > 100 µM and the TGI (SK-MEL-28 melanoma) was > 100 µM. For the same molecule, the TGI (COLO 205 colon) was > 100 µM, the TGI (MDA-MB-435) was 36.8 µM and the TGI (SF-539 CNS) was 74.3 µM. The TGI (SF-268 CNS) was > 100 µM, the TGI (HL-60(TB) leukemia) was 63.4 µM and the TGI (SW-620 colon) was > 100 µM. For the same molecule, the TGI (NCI-H460 lung) was > 100 µM, the TGI (IGROV1 ovarian) was > 100 µM and the TGI (NCI-H522 lung) was > 100 µM. For the same molecule, the TGI (M14 melanoma) was > 100 µM, the TGI (786-0 renal) was > 100 µM and the TGI (HS 578T breast) was > 100 µM. For the same molecule, the TGI (MDA-N) was 65.9 µM, the TGI (RXF 393 renal) was > 100 µM and the TGI (KM12 colon) was > 100 µM. The TGI (NCI-H23 lung) was > 100 µM, the TGI (HCT-15 colon) was > 100 µM and the TGI (RPMI-8226 leukemia) was 47.1 µM. For the same molecule, the TGI (BT-549 breast) was > 100 µM, the TGI (DU-145 prostate) was > 100 µM and the TGI (MALME-3M melanoma) was > 100 µM. For the same molecule, the TGI (HT29 colon) was > 100 µM, the TGI (OVCAR-8 ovarian) was > 100 µM and the TGI (UACC-257 melanoma) was > 100 µM. The TGI (OVCAR-3 ovarian) was > 100 µM, the TGI (K-562 leukemia) was > 100 µM and the TGI (NCI/ADR-RES ovarian) was > 100 µM. The TGI (HOP-62 NSCLC) was > 100 µM, the TGI (U251 CNS) was > 100 µM and the TGI (CAKI-1 renal) was > 100 µM.
